Assay results reported in ChEMBL document CHEMBL1152020, “Novel 2,5-disubstituted-1H-pyrroles with high affinity for the dopamine D3 receptor” (Bioorg Med Chem Lett, 1996).

Legend:
[1] = biological target: D(3) dopamine receptor (Homo sapiens, UniProt P35462); assay: Binding affinity towards human Dopamine receptor D3 expressed in CHO cells by [125I]iodosulpiride displacement.; assay type: cell-based
[2] = biological target: D(2) dopamine receptor (Homo sapiens, UniProt P14416); assay: Binding affinity towards human Dopamine receptor D2 expressed in CHO cells by [125I]iodosulpiride displacement.; assay type: cell-based
[3] = biological target: Dopamine receptors; D2 & D3 (Homo sapiens) (UniProt P14416+P35462); assay: Selectivity at D3 compared to D2 receptors.; assay type: protein assay

D(3) dopamine receptor, sequence (P35462 whole entry): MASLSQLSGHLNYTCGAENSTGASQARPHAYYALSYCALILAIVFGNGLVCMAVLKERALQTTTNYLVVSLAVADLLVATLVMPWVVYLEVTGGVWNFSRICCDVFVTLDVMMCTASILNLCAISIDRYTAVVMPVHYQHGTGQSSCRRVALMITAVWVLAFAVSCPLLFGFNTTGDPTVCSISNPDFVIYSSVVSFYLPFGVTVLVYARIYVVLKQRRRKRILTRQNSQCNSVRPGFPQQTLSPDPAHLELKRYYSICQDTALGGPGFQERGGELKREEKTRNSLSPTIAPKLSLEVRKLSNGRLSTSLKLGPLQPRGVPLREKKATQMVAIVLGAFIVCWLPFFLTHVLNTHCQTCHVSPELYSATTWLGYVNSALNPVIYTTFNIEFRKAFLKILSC
D(2) dopamine receptor, sequence (P14416 whole entry): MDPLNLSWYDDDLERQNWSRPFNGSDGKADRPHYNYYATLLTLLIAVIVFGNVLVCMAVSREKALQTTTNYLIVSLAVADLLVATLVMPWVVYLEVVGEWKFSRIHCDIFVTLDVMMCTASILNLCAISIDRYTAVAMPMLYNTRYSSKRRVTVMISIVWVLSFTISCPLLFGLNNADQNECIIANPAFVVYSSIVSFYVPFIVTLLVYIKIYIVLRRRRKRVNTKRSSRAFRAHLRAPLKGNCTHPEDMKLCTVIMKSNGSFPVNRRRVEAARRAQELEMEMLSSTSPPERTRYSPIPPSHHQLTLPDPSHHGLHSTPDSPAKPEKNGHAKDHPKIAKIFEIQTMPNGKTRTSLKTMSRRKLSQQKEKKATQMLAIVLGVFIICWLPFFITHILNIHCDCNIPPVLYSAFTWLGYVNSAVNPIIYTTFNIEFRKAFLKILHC

Compound | Ki [1] | Ki [2] | Selectivity [3]
CCN1CCCC1c1ccc(-c2cc(S(=O)(=O)CC)ccc2OC)[nH]1 (stereo not given) | 5.01 nM | 25.1 nM | 5
CCS(=O)(=O)c1ccc(OC)c(-c2ccc(C(C)N3CCCCCC3)[nH]2)c1 (stereo not given) | 20 nM | 79.4 nM | 4
CCS(=O)(=O)c1ccc(OC)c(-c2ccc(CN3CCCC3)[nH]2)c1 | 63.1 nM | 251 nM | 4
CCS(=O)(=O)c1ccc(OC)c(-c2ccc(CN3CCCCCC3c3ccccc3)[nH]2)c1 (stereo not given) | 1.26 nM | 39.8 nM | 30
CCS(=O)(=O)c1ccc(OC)c(-c2ccc(CN3CCCC3c3ccccc3)[nH]2)c1 (stereo not given) | 1 nM | 15.8 nM | 15
CCN(Cc1ccccc1)Cc1ccc(-c2cc(S(=O)(=O)CC)ccc2OC)[nH]1 | 0.316 nM | 0.794 nM | 3
CCN(CC)Cc1ccc(-c2cc(S(=O)(=O)CC)ccc2OC)[nH]1 | 39.8 nM | 316 nM | 8
CCS(=O)(=O)c1ccc(OC)c(-c2ccc(CN3CCCCC3c3ccccc3)[nH]2)c1 (stereo not given) | 1.26 nM | 12.6 nM | 10
CCS(=O)(=O)c1ccc(OC)c(-c2ccc(CN3CCCCCC3)[nH]2)c1 | 15.8 nM | 158 nM | 10
CCS(=O)(=O)c1ccc(OC)c(-c2ccc(C(C)N3CCCC3)[nH]2)c1 (stereo not given) | 20 nM | 398 nM | 20
CCN1CCCC1CNC(=O)c1cc(S(=O)(=O)CC)ccc1OC (stereo not given) [SULTOPRIDE] | 6.31 nM | 6.31 nM | 
CCN1CCCCCC1c1ccc(-c2cc(S(=O)(=O)CC)ccc2OC)[nH]1 (stereo not given) | 2 nM | 7.94 nM | 4
CCS(=O)(=O)c1ccc(OC)c(-c2ccc(CN3CCCCCCC3c3ccccc3)[nH]2)c1 (stereo not given) | 20 nM | 316 nM | 15
CCS(=O)(=O)c1ccc(OC)c(-c2ccc(CN3CCCCC3)[nH]2)c1 | 25.1 nM | 158 nM | 6
CCN1CCCCC1c1ccc(-c2cc(S(=O)(=O)CC)ccc2OC)[nH]1 (stereo not given) | 2 nM | 7.94 nM | 4
CCS(=O)(=O)c1ccc(OC)c(-c2ccc(CN3CCOCC3)[nH]2)c1 | 794 nM | 3160 nM | 4
CCS(=O)(=O)c1ccc(OC)c(-c2ccc(C(C)N3CCCCC3)[nH]2)c1 (stereo not given) | 10 nM | 316 nM | 30
